# From ChEMBL document CHEMBL1148336, “3-Aminopyrazole inhibitors of CDK2/cyclin A as antitumor agents. 1. Lead finding” (J Med Chem, 2004)
# Tests used:
# [1] = molecular target: Cyclin-dependent kinase 2/cyclin A (Homo sapiens, UniProt P24941); experiment: In vitro inhibitory concentration against cyclin-dependent kinase 2-cyclin A complex using ATP/P33gamma-ATP mix as radioligand; assay type: protein-complex assay
# A2780 = experiment: Antiproliferative activity against human A2780 cells; assay type: functional, cell-based
Structure (SMILES),IC50 [1],IC50 (A2780)
COc1ccc(C(=O)Nc2cc(C3CC3)[nH]n2)cc1,705 nM,–
O=C(Nc1cc(C2CCC2)[nH]n1)c1ccc(Br)cc1,90 nM,–
NC(=O)c1ccc(-c2ccc(CC(=O)Nc3cc(C4CC4)[nH]n3)cc2)cc1,4 nM,1470 nM
CCC(C)c1cc(NC(=O)c2ccc(Br)cc2)[nH]n1 (stereo not given),> 10000 nM,–
O=C(Nc1cc(-c2ccccc2)[nH]n1)c1ccc(Br)cc1,> 10000 nM,–
CCCc1cc(NC(=O)c2ccc(Br)cc2)n[nH]1,650 nM,–
Cc1cc(NC(=O)c2ccccc2)n[nH]1,1500 nM,–
CCCC(=O)Nc1cc(C)[nH]n1,> 10000 nM,–
O=C(Nc1cc(C2CC2)[nH]n1)c1ccc(Br)cc1,34 nM,–
O=C(Nc1cc(C2CC2)[nH]n1)c1ccc(Cl)c(Cl)c1,83 nM,–
O=C(Cc1ccc(OCCN2CCCC2)cc1)Nc1cc(C2CC2)[nH]n1,–,6980 nM
CC(C)(C)c1cc(NC(=O)c2ccc(Br)cc2)n[nH]1,> 10000 nM,–
O=C(Nc1cc(C2CC2)[nH]n1)c1cccc(Cl)c1,1000 nM,–
O=C(Nc1cc(C2CC2)[nH]n1)c1c(Cl)cccc1Cl,> 10000 nM,–
O=C(Nc1cc(C2CCCCC2)[nH]n1)c1ccc(Br)cc1,1000 nM,–
O=C(Nc1cc(C2CC2)[nH]n1)c1cccc(C(F)(F)F)c1,500 nM,–
O=C(Nc1cc(C2CCCC2)[nH]n1)c1ccc(Br)cc1,50 nM,–
COc1cccc(C(=O)Nc2cc(C3CC3)n[nH]2)c1,600 nM,–
O=C(Nc1cc(Cc2ccccc2)[nH]n1)c1ccc(Br)cc1,> 10000 nM,–
CC(C)c1cc(NC(=O)c2ccc(Br)cc2)n[nH]1,200 nM,–

# Further lines, results first:
IC50 [1],IC50 (A2780),Structure (SMILES)
11 nM,> 20000 nM,O=C(Cc1ccc(-c2ccc(C(=O)O)cc2)cc1)Nc1cc(C2CC2)[nH]n1
4 nM,182 nM,O=C(Cc1ccc(-c2cccc(F)c2)cc1)Nc1cc(C2CC2)[nH]n1
9 nM,205 nM,Cc1cccc(-c2ccc(CC(=O)Nc3cc(C4CC4)[nH]n3)cc2)c1
48 nM,1400 nM,O=C(Cc1ccccc1)Nc1cc(C2CC2)[nH]n1
–,> 20000 nM,COc1cccc(CC(=O)Nc2cc(C3CC3)[nH]n2)c1
–,111 nM,O=C(Cc1ccc(-c2ccccc2)cc1)Nc1cc(C2CC2)[nH]n1
> 10000 nM,–,COc1ccccc1C(=O)Nc1cc(C2CC2)[nH]n1
74 nM,2840 nM,NC(=O)c1ccc(CC(=O)Nc2cc(C3CC3)[nH]n2)cc1
–,900 nM,O=C(Cc1cccc2ccccc12)Nc1cc(C2CC2)[nH]n1
